This is an account of results in publication PMC2706954, “Dissecting Structural and Functional Diversity of the Lantibiotic Mersacidin” (Chemistry & Biology, 2009).

≈ marks a conversion by molar mass, not a printed value. Bounds are passed on as bounds.

The subject of one assay is S. aureus SH1000. Type of assay: cell-based, Staphylococcus aureus. As to conditions: SH1000. As for the experimental part:
(§1) Antibacterial activity of fermentation samples or purified samples was determined by Mueller-Hinton Agar diffusion bioassays using M. luteus ATCC 4698 as the indicator strain. Susceptibility testing (minimum inhibitory concentration [MIC]) for all aerobic organisms, with the exception of S. pneumoniae, was performed following the recommendations of CLSI. Susceptibility testing of S. pneumoniae was performed by two-fold serial dilutions in brain-heart-infusion broth supplemented with 50 μg/ml Ca^2+. Vancomycin was used as a reference antibiotic, and plates were incubated aerobically, with shaking, for 18–20 hr at 37°C with the MIC defined as the lowest concentration of drug that prevented visible growth.

The test system of a further assay is S. aureus R33 MRSA. Type of assay: cell-based, Staphylococcus aureus. The following applies: R33. As for the experimental part: as §1
The subject of a further assay is M. luteus ATCC4698. Type of assay: cell-based, Micrococcus luteus. The following applies: ATCC4698. The method, then: as §1
The next assay concerns S. pneumoniae BAA-255. The class given is cell-based, Streptococcus pneumoniae. The following applies: BAA-255. The method, then:
as §1

The next assay has as its system E. faecium 7131121 VRE. Type of assay: cell-based. As to conditions: 7131121 VRE. As for the experimental part: as §1
The next assay deals with E. faecalis ATCC29212. The class given is cell-based. The following applies: ATCC29212. As for the experimental part: as §1
Another assay concerns S. epidermidis NCTC11047. Type of assay: cell-based. The following applies: NCTC11047. The method, then:
as §1

In a further assay the test system is E. faecium ATCC19579. The class given is cell-based. The following applies: ATCC19579. The method, then:
as §1

Regarding `C=C1NC(=O)C2NC(=O)[C@H](CC(C)C)NC(=O)C(NC(=O)[C@@H]3CSC(C)C(NC(=O)[C@H](Cc4ccccc4)NC(=O)C4NC(=O)[C@@H](N)CSC4C)C(=O)N[C@@H](CC(C)C)C(=O)N4CCC[C@H]4C(=O)NCC(=O)NCC(=O)N[C@@H](CO)C(=O)NCC(=O)N[C@@H](C(C)C)C(=O)N3)C(C)SC[C@H](NC(=O)[C@H](CCC(=O)O)NC1=O)C(=O)N[C@@H]([C@@H](C)CC)C(=O)NC=CSC2C` (stereo partly drawn) [G9S], the “MIC S. aureus SH1000” value in the assay on S. aureus SH1000 was above 64 µg/mL. Besides, in the assay with S. aureus R33 MRSA, the “MIC S. aureus R33 MRSA” value is 64, >64 μg/ml. Besides, the “MIC M. luteus ATCC4698” value with M. luteus ATCC4698 was determined as 64 µg/mL (≈ 34.5 µM). Further, in the assay on S. pneumoniae BAA-255, the “MIC S. pneumoniae BAA-255” value was above 64 µg/mL. In addition, the “MIC E. faecium 7131121 VRE” value in the assay on E. faecium 7131121 VRE is above 64 µg/mL. In addition, the “MIC E. faecalis ATCC29212” value against E. faecalis ATCC29212 is above 64 µg/mL. In addition, the “MIC S. epidermidis NCTC11047” value in the assay on S. epidermidis NCTC11047 was above 64 µg/mL. For the same compound, the “MIC E. faecium ATCC19579” value with E. faecium ATCC19579 was above 64 µg/mL.
For the compound `C=C1NC(=O)C2NC(=O)[C@H](CC(C)C)NC(=O)C(NC(=O)[C@@H]3CSC(C)C(NC(=O)[C@H](Cc4ccccc4)NC(=O)C4NC(=O)[C@@H](N)CSC4C)C(=O)N[C@@H](CC(C)C)C(=O)N4CCC[C@H]4C(=O)NCC(=O)N[C@@H](Cc4c[nH]cn4)C(=O)NCC(=O)NCC(=O)N[C@@H](C(C)C)C(=O)N3)C(C)SC[C@H](NC(=O)[C@H](CCC(=O)O)NC1=O)C(=O)N[C@@H]([C@@H](C)CC)C(=O)NC=CSC2C` (stereo partly drawn) [G8H], in the assay with S. aureus SH1000, the “MIC S. aureus SH1000” value was 64, >64 μg/ml. Further, the “MIC S. aureus R33 MRSA” value against S. aureus R33 MRSA is 64 µg/mL (≈ 33.6 µM). The “MIC M. luteus ATCC4698” value against M. luteus ATCC4698 was 8 µg/mL (≈ 4.2 µM). Further, in the assay on S. pneumoniae BAA-255, the “MIC S. pneumoniae BAA-255” value is 16 µg/mL (≈ 8.39 µM). In the assay on E. faecium 7131121 VRE, the “MIC E. faecium 7131121 VRE” value is above 64 µg/mL. Further, the “MIC E. faecalis ATCC29212” value in the assay on E. faecalis ATCC29212 is above 64 µg/mL. In the assay with S. epidermidis NCTC11047, the “MIC S. epidermidis NCTC11047” value turned out to be 64 µg/mL (≈ 33.6 µM). Further, the “MIC E. faecium ATCC19579” value against E. faecium ATCC19579 is above 64 µg/mL.
In the case of `C=C1NC(=O)C2NC(=O)[C@H](CC(C)C)NC(=O)C(NC(=O)[C@@H]3CSC(C)C(NC(=O)[C@H](Cc4ccccc4)NC(=O)C4NC(=O)[C@@H](N)CSC4C)C(=O)N[C@@H](CC(C)C)C(=O)N4CCC[C@H]4C(=O)NCC(=O)NCC(=O)NCC(=O)NCC(=O)N[C@@H]([C@@H](C)CC)C(=O)N3)C(C)SC[C@H](NC(=O)[C@H](CCC(=O)O)NC1=O)C(=O)N[C@@H]([C@@H](C)CC)C(=O)NC=CSC2C` (stereo partly drawn) [V11I], in the assay on S. aureus SH1000, the “MIC S. aureus SH1000” value amounted to 32 µg/mL (≈ 17.4 µM). Further, the “MIC S. aureus R33 MRSA” value with S. aureus R33 MRSA is 16 µg/mL (≈ 8.69 µM). Also, the “MIC M. luteus ATCC4698” value against M. luteus ATCC4698 turned out to be 0.5 µg/mL (≈ 0.272 µM). In the assay on S. pneumoniae BAA-255, the “MIC S. pneumoniae BAA-255” value is 16 µg/mL (≈ 8.69 µM). Further, in the assay with E. faecium 7131121 VRE, the “MIC E. faecium 7131121 VRE” value came to 16 µg/mL (≈ 8.69 µM). The “MIC E. faecalis ATCC29212” value against E. faecalis ATCC29212 came out at 16 µg/mL (≈ 8.69 µM). Besides, the “MIC S. epidermidis NCTC11047” value in the assay with S. epidermidis NCTC11047 is 16 µg/mL (≈ 8.69 µM). Also, the “MIC E. faecium ATCC19579” value with E. faecium ATCC19579 was 16 µg/mL (≈ 8.69 µM).
For `C=C1NC(=O)C2NC(=O)[C@H](CC(C)C)NC(=O)C(NC(=O)[C@@H]3CSC(C)C(NC(=O)[C@H](Cc4c[nH]c5ccccc45)NC(=O)C4NC(=O)[C@@H](N)CSC4C)C(=O)N[C@@H](CC(C)C)C(=O)N4CCC[C@H]4C(=O)NCC(=O)NCC(=O)NCC(=O)NCC(=O)N[C@@H](C(C)C)C(=O)N3)C(C)SC[C@H](NC(=O)[C@H](CCC(=O)O)NC1=O)C(=O)N[C@@H]([C@@H](C)CC)C(=O)NC=CSC2C` (stereo partly drawn) [F3W], in the assay on S. aureus SH1000, the “MIC S. aureus SH1000” value turned out to be 16 µg/mL (≈ 8.58 µM). Moreover, the “MIC S. aureus R33 MRSA” value against S. aureus R33 MRSA is 8 µg/mL (≈ 4.29 µM). In addition, the “MIC M. luteus ATCC4698” value against M. luteus ATCC4698 was 0.5 µg/mL (≈ 0.268 µM). The “MIC E. faecium 7131121 VRE” value in the assay with E. faecium 7131121 VRE turned out to be 32 µg/mL (≈ 17.2 µM). The “MIC E. faecalis ATCC29212” value against E. faecalis ATCC29212 was 32 µg/mL (≈ 17.2 µM). Further, the “MIC S. epidermidis NCTC11047” value in the assay on S. epidermidis NCTC11047 was 8 µg/mL (≈ 4.29 µM). Moreover, the “MIC E. faecium ATCC19579” value with E. faecium ATCC19579 was 16 µg/mL (≈ 8.58 µM).
In the case of `C=C1NC(=O)C2NC(=O)[C@H](CC(C)C)NC(=O)C(NC(=O)[C@@H]3CSC(C)C(NC(=O)[C@H](Cc4ccccc4)NC(=O)C4NC(=O)[C@@H](N)CSC4C)C(=O)N[C@@H](CC(C)C)C(=O)N4CCC[C@H]4C(=O)NCC(=O)NCC(=O)NCC(=O)N[C@@H](C(C)C)C(=O)N[C@@H](C(C)C)C(=O)N3)C(C)SC[C@H](NC(=O)[C@H](CCC(=O)O)NC1=O)C(=O)N[C@@H]([C@@H](C)CC)C(=O)NC=CSC2C` (stereo partly drawn) [G10V], the “MIC S. aureus SH1000” value with S. aureus SH1000 is above 64 µg/mL. The “MIC S. aureus R33 MRSA” value against S. aureus R33 MRSA is given as 64, >64 μg/ml. Moreover, the “MIC M. luteus ATCC4698” value in the assay on M. luteus ATCC4698 was below 4 µg/mL. Moreover, the “MIC S. pneumoniae BAA-255” value against S. pneumoniae BAA-255 was found to be 16 µg/mL (≈ 8.56 µM). The “MIC E. faecium 7131121 VRE” value against E. faecium 7131121 VRE was above 64 µg/mL. In addition, the “MIC E. faecalis ATCC29212” value in the assay on E. faecalis ATCC29212 was above 64 µg/mL. Also, the “MIC S. epidermidis NCTC11047” value with S. epidermidis NCTC11047 worked out at 64 µg/mL (≈ 34.3 µM). In addition, the “MIC E. faecium ATCC19579” value in the assay with E. faecium ATCC19579 is above 64 µg/mL.
